# Laboratory results reported in patent US4816586A, “Delta opioid receptor antagonists” (Regents of the University of Minnesota, priority 1987, dated 1989).
# Columns and labels:
# Type in all cases: cell-based
# kappa opioid receptor = molecular target: T1, kappa opioid receptor (Cavia porcellus, UniProt P41144); test: Antagonism of ethylketazocine (kappa agonist) in the guinea pig ileum (GPI) preparation; parameters: key to Ke, EK: No agonist antagonism observed; conditions: for Kb: compound 100 or 200 nM, 15 min incubation, read-out: Ke, EK
# T1 construct: a strip of longitudinal muscle with the myenteric plexus attached was prepared; from tissue; host or cells: guinea pig ileum longitudinal muscle with myenteric plexus
# T1 sequence (P41144 whole entry): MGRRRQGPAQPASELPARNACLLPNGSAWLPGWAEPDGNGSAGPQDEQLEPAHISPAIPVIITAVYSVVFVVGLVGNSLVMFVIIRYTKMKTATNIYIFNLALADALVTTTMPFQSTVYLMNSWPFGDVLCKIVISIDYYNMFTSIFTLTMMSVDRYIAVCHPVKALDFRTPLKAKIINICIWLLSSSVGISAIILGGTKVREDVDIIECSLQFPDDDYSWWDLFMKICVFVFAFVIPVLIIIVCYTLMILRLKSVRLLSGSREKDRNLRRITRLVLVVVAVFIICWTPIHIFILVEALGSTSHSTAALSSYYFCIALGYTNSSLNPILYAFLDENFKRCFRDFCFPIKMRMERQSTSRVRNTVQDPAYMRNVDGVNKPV
# Method: (§1) 1. Guinea Pig Ileal Longitudinal Muscle (GPI). Ilea from guinea pigs were taken approximately 10 cm from the ileocaecal junction, and a strip of longitudinal muscle with the myenteric plexus attached was prepared by method of Rang et al., Brit. J. Pharmacol., 22, 356 (1964), the disclosure of which is incorporated by reference herein. A 1 cm portion of this strip was then mounted between two platinum electrodes placed in a 10 ml organ bath and connected to an isometric transducer; contractions were recorded on a polygraph. Contractions of the ileal strip were initiated by supramaximal rectangular pulses in all preparations (80 V of 0.5 ms duration at a frequency of 0.1 Hz). Krebs bicarbonate solution containing 1.25 μM chlorpheniramine maleate was the bathing solution and was continuously bubbled with 95% O2 and 5% CO2. The organ bath was maintained at 36°-37° C. The longitudinal muscle strip was allowed to equilibrate with continuous stimulation for a minimum of 90 min.
# mu opioid receptor = mu opioid receptor (Cavia porcellus, UniProt A0ACM8Q262); test: Antagonism of morphine (mu agonist) in the guinea pig ileum (GPI) preparation; parameters: key to Ke, M: No agonist antagonism observed; conditions: for Kb: compound 100 or 200 nM, 15 min incubation, read-out: Ke
# Chain of mu opioid receptor (A0ACM8Q262 1-400): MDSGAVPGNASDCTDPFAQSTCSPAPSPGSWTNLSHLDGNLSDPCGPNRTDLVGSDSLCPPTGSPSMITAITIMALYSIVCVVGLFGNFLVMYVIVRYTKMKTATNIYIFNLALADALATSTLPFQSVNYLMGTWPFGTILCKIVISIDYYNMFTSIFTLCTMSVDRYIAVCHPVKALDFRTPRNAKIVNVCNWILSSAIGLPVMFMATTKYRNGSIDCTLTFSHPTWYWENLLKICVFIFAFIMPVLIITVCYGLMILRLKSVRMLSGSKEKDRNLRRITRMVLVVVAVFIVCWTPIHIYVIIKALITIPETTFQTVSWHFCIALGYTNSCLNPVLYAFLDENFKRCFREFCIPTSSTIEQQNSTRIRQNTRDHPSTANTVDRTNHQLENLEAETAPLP
# Method: as §1
# delta opioid receptor [1] = molecular target: T2, delta opioid receptor (Mus musculus, UniProt P32300); test: Antagonism of DADLE (delta agonist) in the mouse vas deferens (MVD) preparation; parameters: Both vasa deferentia were dissected out of mice; from tissue; host or cells: mouse vas deferens; key to Ke, DADLE: No agonist antagonism observed; conditions: for Kb: compound 100 or 200 nM, 15 min incubation, read-out: Ke, DADLE; for relative delta antagonist potency: compared within the series
# T2 sequence (P32300 whole entry): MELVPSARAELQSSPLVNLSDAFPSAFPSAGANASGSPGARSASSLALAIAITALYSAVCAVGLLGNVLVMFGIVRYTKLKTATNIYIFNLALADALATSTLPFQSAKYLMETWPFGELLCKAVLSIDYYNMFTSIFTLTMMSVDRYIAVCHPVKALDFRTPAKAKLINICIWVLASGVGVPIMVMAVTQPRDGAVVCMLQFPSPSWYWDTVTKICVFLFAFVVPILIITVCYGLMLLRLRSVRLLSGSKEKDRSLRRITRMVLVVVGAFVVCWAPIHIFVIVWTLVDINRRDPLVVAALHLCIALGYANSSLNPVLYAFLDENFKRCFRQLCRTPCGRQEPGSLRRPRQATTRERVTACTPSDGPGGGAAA
# Method: (§2) The organ bath was maintained at 37° C.
# The results of these bioassays are summarized on Table IV, below.
# [2] = tested on: mouse vas deferens (MVD) and guinea pig ileum (GPI) preparations; test: Agonist activity in the MVD and GPI preparations
# Method: as §1, §2
# delta opioid receptor [3] = molecular target: T2, delta opioid receptor; test: Comparison as delta antagonist with ICI 174864 and M8008
# [4] = compound 7 tested at 5 nM or less
Structure (SMILES),Kb (kappa opioid receptor),Kb (mu opioid receptor),"Kb (delta opioid receptor [1]; agonist DADLE, MVD)",relative delta antagonist potency (delta opioid receptor [1]),other results
Oc1ccc2c3c1O[C@H]1c4[nH]c5ccc(F)cc5c4C[C@@]4(O)[C@@H](C2)N(CC2CC2)CC[C@]314 [Compound 3],46.2 nM,61.7 nM,2 nM,–,–
Oc1ccc2[nH]c3c(c2c1)C[C@@]1(O)[C@H]2Cc4ccc(O)c5c4[C@@]1(CCN2CC1CC1)[C@H]3O5 [Compound 9],68.5 nM,–,–,–,–
Oc1ccc2c3c1O[C@H]1c4[nH]c5c(F)cccc5c4C[C@@]4(O)[C@@H](C2)N(CC2CC2)CC[C@]314 [Compound 11],> 330 nM,5.3 nM,0.35 nM,–,–
Cn1c2c(c3ccccc31)C[C@@]1(O)[C@H]3Cc4ccc(O)c5c4[C@@]1(CCN3CC1CC1)[C@H]2O5 [Compound 2],22.2 nM,12.5 nM,1.5 nM,reduction of antagonist potency,–
Cc1ccc2[nH]c3c(c2c1)C[C@@]1(O)[C@H]2Cc4ccc(O)c5c4[C@@]1(CCN2CC1CC1)[C@H]3O5 [Compound 5],> 250 nM,> 160 nM,4.2 nM,–,–
CN1CC[C@]23c4c5ccc(O)c4O[C@H]2c2[nH]c4ccccc4c2C[C@@]3(O)[C@H]1C5 [Compound 7],–,–,–,–,"agonist activity [2]: partial agonist activity; relative agonist potency ([2]; compared with the N-cyclopropyl analogues): substantially more potent as an agonist than the N-cyclopropyl analogues; Ke, EK (kappa opioid receptor; [4]): e; Ke, M (mu opioid receptor; [4]): e; Ke, DADLE (delta opioid receptor [1]; agonist DADLE, MVD, compound 7 tested at 5 nM or less): e"
COc1ccc2[nH]c3c(c2c1)C[C@@]1(O)[C@H]2Cc4ccc(O)c5c4[C@@]1(CCN2CC1CC1)[C@H]3O5 [Compound 4],12.6 nM,–,5.7 nM,–,–
"Oc1ccc2c3c1O[C@H]1c4[nH]c5ccccc5c4C[C@@]4(O)[C@@H](C2)N(CC2CC2)CC[C@]314 [Compound 1, 17-Cyclopropylmethyl-6,7-dehydro-4,5α-epoxy-3,14-dihydroxy-6,7,2',3'-indolomorphinan]",–,–,0.22 nM,an order of magnitude more potent than its substituted congeners,"potency compared with ICI 174864 (delta opioid receptor [3]): considerably more potent than the peptide delta antagonist, ICI 174864; potency relative to the peptide delta antagonist ICI 174864 (delta opioid receptor [3]; in one assay): at least 30 times; antagonism of the effect of the delta agonist DADLE / delta antagonist activity (delta opioid receptor [1]): highly active delta antagonist"
Cc1cccc2c3c([nH]c12)[C@@H]1Oc2c(O)ccc4c2[C@@]12CCN(CC1CC1)[C@H](C4)[C@]2(O)C3 [Compound 13],> 330 nM,19.1 nM,1.5 nM,–,–
O=[N+]([O-])c1ccc2[nH]c3c(c2c1)C[C@@]1(O)[C@H]2Cc4ccc(O)c5c4[C@@]1(CCN2CC1CC1)[C@H]3O5 [Compound 6],≥ 200 nM,92 nM,168 nM,–,–
COc1cccc2c3c([nH]c12)[C@@H]1Oc2c(O)ccc4c2[C@@]12CCN(CC1CC1)[C@H](C4)[C@]2(O)C3 [Compound 14],–,35 nM,6.6 nM,–,–
"Oc1ccc2c3c1O[C@H]1c4nc5ccccc5cc4C[C@@]4(O)[C@@H](C2)N(CC2CC2)CC[C@]314 [Compound 17, 17-cyclopropylmethyl-6,7-dehydro-4,5α-epoxy-3,14-dihydroxy-6,7,2',3'-quinolinomorphinan]",16.3 nM,–,2.7 nM,A similar relationship was observed,–
Oc1ccc2c3c1O[C@H]1c4[nH]c5cccc(F)c5c4C[C@@]4(O)[C@@H](C2)N(CC2CC2)CC[C@]314 [Compound 10],> 170 nM,> 125 nM,5.5 nM,–,–
"Oc1ccc2c3c1O[C@H]1c4oc5ccccc5c4C[C@@]4(O)[C@@H](C2)N(CC2CC2)CC[C@]314 [Compound 8, 6,7,2',3'-Benzofurano-17-cyclopropylmethyl-6,7-dehydro-3,14-dihydroxy-4,5α-epoxymorphinan]",50.8 nM,30.8 nM,1.8 nM,less potent,antagonism of the effect of the delta agonist DADLE / delta antagonist activity (delta opioid receptor [1]): retains substantial delta antagonist activity; relative delta selectivity (delta opioid receptor [1]; compared with compound 1): less selective than 1
"Oc1ccc2c3c1O[C@H]1c4nc5ccccc5nc4C[C@@]4(O)[C@@H](C2)N(CC2CC2)CC[C@]314 [Compound 16, 6,7,2',3'-benzopyrazino-17-cyclopropylmethyl-6,7-dehydro-3,14-dihydroxy-4,5α-epoxymorphinan]",13.4 nM,–,1.4 nM,A similar relationship was observed,–
